Test results published in the supplement of paper PMC4862054.

Legend:
[1] = test system: HCC1599; test: drug sensitivity score (DSS), CellTiter-Glo (DSS (AUC-based score)); higher = stronger drug effect (viability inhibition or cytotoxicity); extreme values may be limits of the assay; details: incubation time: 72 h
Summary of the method: (§1)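 The area under the fitted dose-response curve was used to calculate the drug sensitivity score. Cells from breast cancer lines were incubated for 72 h in 384-well plates with compound at 5 concentrations spaced 10-fold over a 10,000-fold range specific to each compound. Plates were read for CellTox Green and then CellTiter-Glo, and normalised to 0.1 % DMSO and a positive kill control.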

[2] = test system: HCC1937; test: as above; details: incubation time: 72 h
Summary of the method: as §1

[3] = test system: MFM-223; test: as above; details: incubation time: 72 h
Summary of the method: as §1

[4] = test system: CAL-120; test: normalised viability (% of control), CellTiter-Blue; higher = more viable cells (about 100 = DMSO control); details: incubation time: 72 h
Summary of the method: (§2)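 The reported quantity is normalised viability at a single listed concentration of the series. Compound in 5 µl medium was pre-dispensed into 384-well plates and 20 µl of breast cancer cell suspension was added for 72 h. A 2 h, 37 °C CellTiter-Blue step (2.5 µl) preceded fluorescence reading at 560/590 nm, and plates were normalised to vehicle (100) and a positive kill control (0).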

[5] = test system: SK-BR-3; test: as above; details: incubation time: 72 h
Summary of the method: as §2

[6] = test system: MDA-MB-468; test: as above; details: incubation time: 72 h
Summary of the method: as §2

[7] = test system: HDQ-P1; test: as above; details: incubation time: 72 h
Summary of the method: as §2

[8] = test system: MDA-MB-436; test: as above; details: incubation time: 72 h
Summary of the method: as §2

[9] = test system: BT-549; test: as above; details: incubation time: 72 h
Summary of the method: as §2

[10] = test system: HCC1143; test: as above; details: incubation time: 72 h
Summary of the method: as §2

[11] = test system: BT-474; test: as above; details: incubation time: 72 h
Summary of the method: as §2

[12] = test system: CAL-120; test: normalised viability (% of control), CellTiter-Blue; higher = more viable cells (about 100 = DMSO control); details: 100 nM; incubation time: 72 h
Method: (§3)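 DSRT, CellTiter-Blue viability, 72 h incubation. Signal is normalised to DMSO and benzethonium chloride controls. Value is the normalised response at dose 3.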

[13] = test system: SK-BR-3; test: as above; details: 100 nM; incubation time: 72 h
Method: as §3

[14] = test system: Hs578T; test: as above; details: 100 nM; incubation time: 72 h
Method: as §3

[15] = test system: MDA-MB-453; test: as above; details: 10 nM; incubation time: 72 h
Method: as §3

[16] = test system: MDA-MB-468; test: as above; details: 100 nM; incubation time: 72 h
Method: as §3

[17] = test system: CAL-51; test: as above; details: 10 nM; incubation time: 72 h
Method: as §3

[18] = test system: CAL-85-1; test: as above; details: 10 nM; incubation time: 72 h
Method: as §3

[19] = test system: HCC1599; test: as above; details: 100 nM; incubation time: 72 h
Method: as §3

[20] = test system: CAL-148; test: as above; details: 10 nM; incubation time: 72 h
Method: as §3

[21] = test system: HDQ-P1; test: as above; details: 10 nM; incubation time: 72 h
Method: as §3

[22] = test system: DU-4475; test: as above; details: 10 nM; incubation time: 72 h
Method: as §3

[23] = test system: MDA-MB-436; test: as above; details: 100 nM; incubation time: 72 h
Method: as §3

[24] = test system: BT-549; test: as above; details: 100 nM; incubation time: 72 h
Method: as §3

[25] = test system: HCC1143; test: as above; details: 100 nM; incubation time: 72 h
Method: as §3

[26] = test system: HCC1937; test: as above; details: 100 nM; incubation time: 72 h
Method: as §3

[27] = test system: MFM-223; test: as above; details: 100 nM; incubation time: 72 h
Method: as §3

[28] = test system: BT-474; test: as above; details: 100 nM; incubation time: 72 h
Method: as §3

[29] = test system: MDA-MB-231; test: as above; details: 100 nM; incubation time: 72 h
Method: as §3

O=C1CN2Cc3c(ccc(Cl)c3Cl)N=C2N1 [Anagrelide]
Details | drug sensitivity score | normalised viability [%]
[1] | 0 | –
[2] | 0 | –
[3] | 0 | –
[12] | – | 85.6
[13] | – | 60.9
[14] | – | 88
[15] | – | 109
[16] | – | 95.2
[17] | – | 98.7
[18] | – | 91.6
[19] | – | 104
[20] | – | 97
[21] | – | 114
[22] | – | 98.6
[23] | – | 94.2
[24] | – | 92.5
[25] | – | 84.8
[26] | – | 94.9
[27] | – | 93
[28] | – | 122
[29] | – | 99.2

normalised viability [%]
Details | [4] | [5] | [6] | [7] | [8] | [9] | [10] | [11]
3 nM | – | – | – | 116 | – | – | – | –
10 nM | 91.3 | 119 | 106 | – | 79.2 | 88.7 | 83.5 | 126
30 nM | – | – | – | 95 | – | – | – | –
100 nM | – | – | – | 99.2 | – | – | – | –
1000 nM | 91.9 | 110 | 103 | – | 97 | 89.1 | 87.8 | 132
10000 nM | 86.2 | 107 | 111 | – | 99 | 99.4 | 83.2 | 130

Nc1ncn([C@@H]2O[C@H](CO)[C@@H](O)[C@H]2O)c(=O)n1 [Azacitidine]
Details | drug sensitivity score | normalised viability [%]
[1] | 1.27 | –
[2] | 0 | –
[3] | 0 | –
[12] | – | 90.9
[13] | – | 89.3
[14] | – | 91.7
[15] | – | 101
[16] | – | 103
[17] | – | 108
[18] | – | 95.2
[19] | – | 97
[20] | – | 82.7
[21] | – | 108
[22] | – | 118
[23] | – | 89.3
[24] | – | 106
[25] | – | 91.5
[26] | – | 98.3
[27] | – | 94.7
[28] | – | 107
[29] | – | 84.5

normalised viability [%]
Details | [4] | [5] | [6] | [7] | [8] | [9] | [10] | [11]
3 nM | – | – | – | 141 | – | – | – | –
10 nM | 80.9 | 92 | 110 | – | 114 | 115 | 72.6 | 104
30 nM | – | – | – | 104 | – | – | – | –
100 nM | – | – | – | 96 | – | – | – | –
1000 nM | 88.9 | 106 | 40.7 | – | 86.3 | 95.4 | 83.8 | 102
10000 nM | 60.9 | 66.6 | 20.9 | – | 70.3 | 48.7 | 62.3 | 95

O=NN(CCCl)C(=O)NCCCl [Carmustine]
Details | drug sensitivity score | normalised viability [%]
[1] | 0 | –
[2] | 0 | –
[3] | 0 | –
[12] | – | 91.3
[13] | – | 102
[14] | – | 96.3
[15] | – | 109
[16] | – | 123
[17] | – | 105
[18] | – | 95
[19] | – | 114
[20] | – | 91.5
[21] | – | 105
[22] | – | 108
[23] | – | 119
[24] | – | 111
[25] | – | 91.8
[26] | – | 87.8
[27] | – | 83.8
[28] | – | 111
[29] | – | 90.8

normalised viability [%]
Details | [4] | [5] | [6] | [7] | [8] | [9] | [10] | [11]
3 nM | – | – | – | 120 | – | – | – | –
10 nM | 98.9 | 100 | 107 | – | 91.8 | 88.2 | 87.2 | 124
30 nM | – | – | – | 128 | – | – | – | –
100 nM | – | – | – | 108 | – | – | – | –
1000 nM | 83 | 123 | 102 | – | 105 | 89.9 | 85.4 | 98.8
10000 nM | 82.5 | 96.9 | 103 | – | 87.5 | 103 | 86.6 | 125

CC1=C2C[C@H]3[C@@H](CC=C4C[C@@H](O)CC[C@@]43C)[C@@H]2CC[C@]12O[C@@H]1C[C@H](C)CN[C@H]1[C@H]2C [Cyclopamine]
Details | drug sensitivity score | normalised viability [%]
[1] | 0 | –
[2] | 0 | –
[3] | 0 | –
[12] | – | 88.2
[13] | – | 90.8
[14] | – | 84.1
[15] | – | 123
[16] | – | 94.4
[17] | – | 114
[18] | – | 109
[19] | – | 113
[20] | – | 113
[21] | – | 120
[22] | – | 107
[23] | – | 96.3
[24] | – | 111
[25] | – | 116
[26] | – | 100
[27] | – | 103
[28] | – | 124
[29] | – | 84.9

normalised viability [%]
Details | [4] | [5] | [6] | [7] | [8] | [9] | [10] | [11]
3 nM | – | – | – | 89.1 | – | – | – | –
10 nM | 98.1 | 103 | 100 | – | 110 | 88.6 | 96 | 135
30 nM | – | – | – | 106 | – | – | – | –
100 nM | – | – | – | 114 | – | – | – | –
1000 nM | 98.4 | 123 | 102 | – | 80.5 | 87.2 | 107 | 114
10000 nM | 97.3 | 103 | 90.9 | – | 114 | 92 | 99.1 | 132
